This passage reports RP-LC retention time results from the METLIN SMRT retention time set (Domingo-Almenara et al. 2019).

The structures appear in SMILES notation.

A short description of the data set: gradient 5% acetonitrile 3 min, to 50% in 2 min, to 85% in 15 min, held 3 min, 100 µL/min. The following applies: column: Zorbax Extend-C18 2.1 x 50 mm; eluents: water / acetonitrile, 0.1% formic acid. In a few lines: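 Retention times of pure standards were taken from adduct peaks that were selected by computer and manually inspected. Over 3 months, mixtures of ~100 molecules were run by HPLC–quadrupole time-of-flight mass spectrometry in positive and negative ionization mode. The Zorbax Extend-C18 column (2.1 × 50 mm, 1.8 μm) ran at 100 μL/min in water and acetonitrile, each containing 0.1% formic acid, with 40 μL dead volume and 900 μL dwell volume.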
Compound `COc1c(C(=O)NCc2cc(F)cc(F)c2)sc2ccc(F)cc12` yielded an RP-LC retention time of 1070 s. With `CCOC(=O)CNC(=O)Nc1ccc(CCc2nc3ccccc3[nH]2)cc1`, the RP-LC retention time came out at 606 s. On to `COc1cc(OC)c(NC(=O)Cc2nnc(-c3ccc4ncccc4c3)o2)cc1Cl`, for which the RP-LC retention time was 936 s. As to `Cc1cc(C)cc(N2CCC(NC(=O)c3cccs3)C2=O)c1` (stereo not given), the RP-LC retention time came out at 842 s. Turning to `COc1ccc(Nc2nc(N3CCN(c4ccccc4OC)CC3)nc3c2C(=O)CCC3)cc1`, the RP-LC retention time amounted to 1170 s. As to `CCN(CC)C(=O)N1CCCN(S(C)(=O)=O)C(c2ccccc2)CC(=O)NCC1` (stereo not given), the RP-LC retention time came to 700 s. To `Cc1nc(-c2cn(C)c3ncccc23)sc1C(=O)NCc1ccccc1Cl` belongs 942 s; to `CCOc1ccc(-n2c(CN3CCN(C(=O)NCC(C)C)CC3)nc3cccnc32)cc1`, 654 s; to `c1ccc(CCc2nc(-c3ccc4c(c3)nnn4CCN3CCOCC3)no2)cc1`, 687 s. The compound `COc1cccc(CC(=O)N2CCC3(CC2)NCc2ccccc2-n2ccnc23)c1` yielded an RP-LC retention time of 572 s. Turning to `Cc1ccc(C)c(N2CCN(S(=O)(=O)c3cc(-c4csc(C)n4)sc3C)CC2)c1`, the RP-LC retention time came to 1360 s. The compound `CCn1cc2c3c(cccc31)CN(C(=O)Nc1ccc3c(c1)OCCO3)CC2` returned an RP-LC retention time of 908 s.

The compound `Cc1ccc(N2C(=O)N(Cc3ccc(F)cc3)S(=O)(=O)c3cccnc32)cc1` gave an RP-LC retention time of 1080 s. In turn, `CCN(CC)Cc1nc(-c2ccc(N3CCSCC3)nc2)no1` returned an RP-LC retention time of 632 s.

Consider `Cc1ccc(-n2nc(N3CCCC(C(=O)NC4CCCCCCC4)C3)ccc2=O)cc1Cl` (stereo not given), for which the RP-LC retention time worked out at 1110 s. Consider `Cc1cc(-c2c(C)sc(C)c2S(=O)(=O)N2CCN(c3cccc(Cl)c3)CC2)n[nH]1`, for which the RP-LC retention time stood at 1040 s.

With `COc1ccccc1-n1c(SCC(=O)Nc2nnc(C)s2)nc2c(c1=O)SCC2`, the RP-LC retention time was 645 s. Compound `CCN1c2ccc(C)cc2C(=O)NC12CCN(C(=O)c1ccc(F)c(F)c1)CC2` gave an RP-LC retention time of 826 s. Consider `Cc1ccc(F)cc1S(=O)(=O)N1CCn2c(nnc2C2CCN(C(C)C)C2)C1` (stereo not given), for which the RP-LC retention time came to 608 s. To `COc1cccc(CN2C[C@@H]3C(=O)N(Cc4ccc5c(c4)OCO5)C(=O)[C@@H]3C2)c1` belongs 724 s. `O=c1n(Cc2ccccc2)nc2c(-c3nc(-c4ccccc4)no3)cccn12` yielded an RP-LC retention time of 984 s. For `O=C(Nc1ccc2c(c1)OCO2)C1(c2ccc(F)cc2)CC1` the value was 877 s; for `CCC(=O)N1CCc2c(sc3ncnc(NCc4cccnc4)c23)C1`, 573 s; for `CC(C)(C)OC(=O)Cn1cnc2c(-c3cccc(Cl)c3)csc2c1=O`, 1130 s. In turn, `CC(C)C(=O)Nc1ccc2nc(N3CCN(CC(=O)N4CCCC4)CC3)cc(C(=O)O)c2c1` had an RP-LC retention time of 561 s. For `O=C1CC(c2ccc(F)cc2)Cc2c1cnn2-c1nc2ccccc2[nH]1` (stereo not given) the value was 891 s.

Compound `Cc1ccc(-c2cc(NC(=O)c3cccc(N(C)C)c3)on2)s1` had an RP-LC retention time of 1050 s. Consider `CC(C)C(=O)N1CCc2c(c(-c3nncn3C(C)C)nn2C)C1`, for which the RP-LC retention time was determined as 639 s. As to `CCCCOc1ccc(NC(=O)c2cc(=O)c3cc(C)cc(C)c3o2)c2cccnc12`, the RP-LC retention time stood at 838 s. The compound `CCOc1ccc2ncc(C#N)c(NCc3ccccc3)c2c1` had an RP-LC retention time of 634 s. With `O=C(c1ccnnc1)N1C[C@@H](COCC2CC2)[C@H](c2ccccn2)C1`, the RP-LC retention time came out at 654 s.

Regarding `COc1cccc(CNC(=O)CN2CCN(Cc3ccc(F)cc3Cl)C2=O)c1`, the RP-LC retention time was determined as 844 s.

With `Cn1nc2n(c1=O)CCN(S(=O)(=O)c1cccc3cccnc13)CC2`, the RP-LC retention time was 649 s. For the compound `O=C(NCc1ccco1)C1(c2ccc(F)cc2)CC1`, the RP-LC retention time turned out to be 788 s. For the compound `O=C1NCCCn2cc(S(=O)(=O)Nc3ccc(Cl)cc3F)cc21`, the RP-LC retention time was 678 s. For `Cc1cc(Cl)ccc1NC(=O)c1cnc(-c2ccccc2)nc1-c1ccncc1`, the RP-LC retention time was determined as 956 s. `CCOC(=O)c1noc2nc(C)nc(N(C)c3cc(C)ccc3OC)c12` returned an RP-LC retention time of 1040 s. In the case of `Cc1ccc(-c2cn3c(CC(=O)NCc4ccc(F)cc4)csc3n2)cc1C`, the RP-LC retention time stood at 843 s. As to `Cc1ccccc1N1C(=O)CN(S(=O)(=O)c2ccccc2)CC1(C)C(=O)NCc1ccc(F)cc1` (stereo not given), the RP-LC retention time was 913 s. `CCn1cc(-c2nc(C)c(C(=O)Nc3ccc(F)cc3)s2)c2cccnc21` gave an RP-LC retention time of 999 s. With `COc1ccccc1-c1nc2n(n1)C1(CCCCC1)[C@@H]1CCCC[C@@H]1N2C(=O)c1ccco1`, the RP-LC retention time came out at 1200 s. Take `O=C(NCc1ccccc1Cl)C1CCCN(C(=O)NC2CC2)C1` (stereo not given): the RP-LC retention time is 652 s. For `O=C(c1ccsc1)N1CCCn2nc(-c3ccc(Cl)cc3)cc2C1`, the RP-LC retention time amounted to 945 s. In turn, `CSCCC(NS(=O)(=O)c1ccc(Oc2ccccc2C)cc1)C(=O)O` (stereo not given) registered an RP-LC retention time of 852 s.

With `CN1C(=O)[C@H]2CN(Cc3ccc(N(C)C)cc3)C[C@H]2C1=O`, the RP-LC retention time is 525 s.

Regarding `Cc1ccc(Cn2c(N3CCC(C(=O)NCC(C)C)CC3)nc3ccsc3c2=O)cc1`, the RP-LC retention time was 920 s. As to `COc1ccc(C(=O)Nc2nnc(SCc3nnc(-c4ccccc4)o3)s2)cc1OC`, the RP-LC retention time is 830 s. As to `CCCCN(C)C(=O)Cn1c(CO)nc2ccccc21`, the RP-LC retention time turned out to be 589 s. For `CCNC(=O)NC1CCN(c2ccc(C)c(C)c2)C1=O` (stereo not given), the RP-LC retention time stood at 690 s. For `COc1ccc(N2CCN(S(=O)(=O)c3cc(-c4nc(C(C)C)cs4)cs3)CC2)cc1` the value was 1250 s; for `COc1ccc(-c2n[nH]c3c2C(c2cc(OC)ccc2OC)NC3=O)cc1` (stereo not given), 729 s. With `Cc1nnc(SCCC(=O)Nc2nc(-c3ccccc3)ns2)s1`, the RP-LC retention time turned out to be 890 s. Regarding `COc1ccc(OCc2nnc3sc(-c4ccc5c(c4)OCCO5)nn23)cc1`, the RP-LC retention time was 906 s. In turn, `Cc1ccc(N2CC(c3noc(-c4ccc(-c5ccccc5)cc4)n3)CC2=O)cc1` (stereo not given) yielded an RP-LC retention time of 1180 s. Regarding `COc1ccc(CC(=O)N2CCc3cc(-c4csc(C)n4)ccc32)cc1`, the RP-LC retention time was found to be 1060 s. Regarding `O=C(NCc1ccccc1F)c1ccc(NC(=O)C2CC2)cc1N1CCOCC1`, the RP-LC retention time is 995 s. To `Cc1noc(-c2ccc(-n3cnc(C(=O)NCCc4ccccc4)c3)nc2)n1` belongs 678 s; to `COc1cc(Br)c(C2C(C(=O)N3CCOCC3)=C(C)NC3=C2C(=O)CCC3)cc1OC` (stereo not given), 618 s; to `CC(C)c1ccc(S(=O)(=O)N2CCN(c3cnn4cnnc4c3)CC2)cc1`, 795 s. The compound `CCn1cc(-c2nc(CC(=O)Nc3ccc(F)c(C)c3)cs2)c2cccnc21` displayed an RP-LC retention time of 902 s. To `COc1ccc(C(=O)Nc2ccc3nc(N4CCN(C5CCCCC5)CC4)cc(C(=O)O)c3c2)cc1` belongs 614 s. The compound `O=S(=O)(CCc1noc(-c2ccc3c(c2)OCO3)n1)c1ccc(Cl)cc1` showed an RP-LC retention time of 979 s. `COc1ccc(C)cc1NC(=O)N1C[C@H](c2nc(-c3ccncc3)no2)[C@@H](C)C1` returned an RP-LC retention time of 876 s.

`O=C(NCCc1ccccc1)C1CCN(C(=O)C2Sc3ccccc3NC2=O)CC1` (stereo not given) yielded an RP-LC retention time of 740 s. Compound `Cc1ccc(C2=NC3(CCN(C(=O)Nc4ccc5c(c4)OCO5)CC3)NC2=O)cc1` came in with an RP-LC retention time of 714 s. Turning to `Cc1cc(C)cc(S(=O)(=O)N2CCC(CN3CCCCCC3)CC2)c1`, the RP-LC retention time was 708 s. `C=CCNC(=O)C1CCCN(S(=O)(=O)c2ccc(OC)c(OC)c2)C1` (stereo not given) showed an RP-LC retention time of 700 s. In the case of `Cc1nc(SCC(=O)Nc2nc3ccccc3s2)c2c(=O)n(C)c(=O)n(C)c2n1`, the RP-LC retention time turned out to be 793 s. `CC1=NOC(C)(CNC(=O)NC2CCCC2)C1` (stereo not given): the RP-LC retention time turned out to be 633 s.

Regarding `O=C(Nc1cccc(Cl)c1)Nc1ccc2nc3n(c(=O)c2c1)CCC3`, the RP-LC retention time is 736 s. Consider `COCCn1c(C2CCN(C(=O)c3cc(Cl)ccc3OC)C2)nc2ccncc21` (stereo not given), for which the RP-LC retention time stood at 561 s. `Cn1ncc2c3ccccc3n(CC(=O)NCCc3ccco3)c2c1=O` returned an RP-LC retention time of 904 s.

`COc1ccc(-c2cc(N3CCN(C(=O)c4cccs4)CC3)n[nH]2)cc1` had an RP-LC retention time of 714 s. With `O=C(NC1CCN(c2cc(-c3ccc(Cl)cc3)[nH]n2)C1)c1cccc(F)c1` (stereo not given), the RP-LC retention time turned out to be 721 s.

With `CCc1cc(=O)n(CC(=O)NCc2ccccc2)c(N)n1`, the RP-LC retention time worked out at 566 s. The compound `Fc1ccccc1-c1noc(NC2CCCC2)n1` came in with an RP-LC retention time of 929 s. In turn, `COC(=O)c1c(-c2ccccc2)csc1NC(=O)C1CCN(C(C)=O)CC1` returned an RP-LC retention time of 862 s. For `Cc1ccc(N2C(=O)SC(N(CC(N)=O)c3ccc(C)cc3)C2=O)cc1` (stereo not given) the value was 782 s; for `CCN(CC)C(=O)c1cc(=O)[nH]c2c(C)cccc12`, 657 s; for `CCCN1C(=O)COc2ccc(-c3csc(NC(=O)C4CCCCC4)n3)cc21`, 1100 s.
